Measured values published in PubChem BioAssay (NCI).
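Five concentrations, 48 hours, 96-well plates. At the GI50, growth is halved. The concentration for full growth arrest is given as TGI.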

Tests used:
Test in all cases: DTP human tumour cell line panel, 48 h
SF-539 CNS = test system: SF-539 CNS
A498 renal = test system: A498 renal
HCT-116 colon = test system: HCT-116 colon
SR leukemia = test system: SR leukemia
MOLT-4 leukemia = test system: MOLT-4 leukemia
CAKI-1 renal = test system: CAKI-1 renal
SK-MEL-2 melanoma = test system: SK-MEL-2 melanoma
UO-31 renal = test system: UO-31 renal
HCC-2998 colon = test system: HCC-2998 colon
PC-3 prostate = test system: PC-3 prostate
T-47D breast = test system: T-47D breast
DU-145 prostate = test system: DU-145 prostate
NCI-H522 lung = test system: NCI-H522 lung
HL-60(TB) leukemia = test system: HL-60(TB) leukemia
COLO 205 colon = test system: COLO 205 colon
OVCAR-4 ovarian = test system: OVCAR-4 ovarian
NCI/ADR-RES ovarian = test system: NCI/ADR-RES ovarian
A549 NSCLC = test system: A549 NSCLC
SW-620 colon = test system: SW-620 colon
BT-549 breast = test system: BT-549 breast
SF-295 CNS = test system: SF-295 CNS
NCI-H23 lung = test system: NCI-H23 lung
MDA-MB-468 breast = test system: MDA-MB-468 breast
OVCAR-5 ovarian = test system: OVCAR-5 ovarian
RXF 393 renal = test system: RXF 393 renal
SF-268 CNS = test system: SF-268 CNS
HS 578T breast = test system: HS 578T breast
K-562 leukemia = test system: K-562 leukemia
MCF7 breast = test system: MCF7 breast
786-0 renal = test system: 786-0 renal

## NS(=O)(=O)c1ccc(NC(=O)CSc2ccc(-c3ccc(Cl)cc3)nn2)c(Br)c1
SF-539 CNS
  TGI: 15.8 µM
A498 renal
  GI50: 14 µM
  TGI: 28 µM
HCT-116 colon
  GI50: 10.3 µM
  TGI: 29.6 µM
SR leukemia
  GI50: 50.5 µM
  TGI: > 100 µM
MOLT-4 leukemia
  GI50: 48.3 µM
  TGI: > 100 µM
CAKI-1 renal
  GI50: 11 µM
  TGI: 24.4 µM
SK-MEL-2 melanoma
  GI50: 15.8 µM
  TGI: 32 µM
UO-31 renal
  GI50: 29.5 µM
  TGI: > 100 µM
HCC-2998 colon
  GI50: 11 µM
  TGI: 40.4 µM
PC-3 prostate
  GI50: 8.97 µM
  TGI: 49.2 µM
T-47D breast
  GI50: 4.59 µM
  TGI: 21.8 µM
DU-145 prostate
  GI50: 12.1 µM
  TGI: 27.2 µM
NCI-H522 lung
  GI50: 10.5 µM
  TGI: 26.3 µM
HL-60(TB) leukemia
  GI50: 50.9 µM
  TGI: > 100 µM
COLO 205 colon
  GI50: 20.7 µM
  TGI: 65.5 µM
OVCAR-4 ovarian
  GI50: 10.4 µM
  TGI: 42.6 µM
NCI/ADR-RES ovarian
  GI50: 7.75 µM
  TGI: > 100 µM
A549 NSCLC
  GI50: 11.7 µM
  TGI: 31.8 µM
SW-620 colon
  GI50: 32.8 µM
  TGI: > 100 µM
BT-549 breast
  GI50: 14.1 µM
  TGI: 44.3 µM
SF-295 CNS
  GI50: 5.13 µM
  TGI: 16.1 µM
NCI-H23 lung
  GI50: 11.1 µM
  TGI: 23.2 µM
MDA-MB-468 breast
  GI50: 8.32 µM
  TGI: 25 µM
OVCAR-5 ovarian
  GI50: 17.2 µM
  TGI: 51 µM
RXF 393 renal
  GI50: 2.99 µM
  TGI: 13.8 µM
SF-268 CNS
  GI50: 7.22 µM
  TGI: 34.4 µM
HS 578T breast
  GI50: 2.8 µM
  TGI: 12.4 µM
K-562 leukemia
  GI50: 20.4 µM
  TGI: > 100 µM
MCF7 breast
  GI50: 10.1 µM
  TGI: 25.3 µM
786-0 renal
  GI50: 11.3 µM
  TGI: 25.6 µM
